Results from PubChem BioAssay AID1845202 (Molecular Pharmacology Branch, DTP, NCI, 2023).
Where “and” joins values, the source holds several entries; their conditions need not be identical. Identical values can stand only once.

Test system: DMS 114 tumor spheroids, viability % test/control
Experiment: Anticancer human tumor DMS 114 cell line growth inhibition;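 further: spheroids exposed to compounds for 7 days before read-out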;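 on viability, T/C: luminescence used as a proxy for viable cells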
Details: spheroids with HUVEC and MSC; for viability, T/C: stronger effect = lower value
How it was run: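 Complex tumor spheroids combined malignant cells with endothelial cells and mesenchymal stem cells. DNA-damaging drugs and DNA repair inhibitors were tested alone and in combination, at half-log dilutions down from clinical Cmax (top 10 microM if Cmax unknown), 0.25% DMSO final.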

## CNCc1ccc(-c2cc(-c3nc(-c4ccc(S(=O)(=O)C(C)C)cc4)cnc3N)on2)cc1
Compound 0.00949 µM
  viability, T/C: 93% and 107% and 91.3%
Compound 0.03 µM
  viability, T/C: 96.8% and 102% and 94%
Compound 0.0949 µM
  viability, T/C: 88.2% and 77.7% and 80.8%
Compound 0.3 µM
  viability, T/C: 34.7% and 25.9% and 27.3%
Compound 0.949 µM
  viability, T/C: 3.27% and 5.9% and 2.77%
Compound 3 µM
  viability, T/C: 0.32% and 0.23% and 0.26%
Curve of compound
  IC50: 0.216 µM and 0.176 µM and 0.184 µM

## COc1cc(C)[nH]c(=O)c1CN1CCc2c(Cl)cc(C(OC)C3COC3)c(Cl)c2C1=O (stereo not drawn) + Cn1nnc2c(C(N)=O)ncn2c1=O
Curve of first compound, second compound 1 µM
  IC50: > 10 µM
Curve of first compound, second compound 3.16 µM
  IC50: > 10 µM
Curve of first compound, second compound 10 µM
  IC50: > 10 µM
Curve of first compound, second compound 31.6 µM
  IC50: > 10 µM
Curve of first compound, second compound 100 µM
  IC50: > 10 µM
Second compound 1 µM, first compound 0.0316 µM
  viability, T/C: 103%
Second compound 1 µM, first compound 0.1 µM
  viability, T/C: 93.3%
Second compound 1 µM, first compound 0.316 µM
  viability, T/C: 82.7%
Second compound 1 µM, first compound 1 µM
  viability, T/C: 78.4%
Second compound 1 µM, first compound 3.16 µM
  viability, T/C: 73%
Second compound 1 µM, first compound 10 µM
  viability, T/C: 71%
Second compound 3.16 µM, first compound 0.0316 µM
  viability, T/C: 109%
Second compound 3.16 µM, first compound 0.1 µM
  viability, T/C: 97.1%
Second compound 3.16 µM, first compound 0.316 µM
  viability, T/C: 91%
Second compound 3.16 µM, first compound 1 µM
  viability, T/C: 82.3%
Second compound 3.16 µM, first compound 3.16 µM
  viability, T/C: 76.5%
Second compound 3.16 µM, first compound 10 µM
  viability, T/C: 71.7%
Second compound 10 µM, first compound 0.0316 µM
  viability, T/C: 115%
Second compound 10 µM, first compound 0.1 µM
  viability, T/C: 99.5%
Second compound 10 µM, first compound 0.316 µM
  viability, T/C: 93.1%
Second compound 10 µM, first compound 1 µM
  viability, T/C: 82%
Second compound 10 µM, first compound 3.16 µM
  viability, T/C: 80.5%
Second compound 10 µM, first compound 10 µM
  viability, T/C: 70.1%
Second compound 31.6 µM, first compound 0.0316 µM
  viability, T/C: 102%
Second compound 31.6 µM, first compound 0.1 µM
  viability, T/C: 103%
Second compound 31.6 µM, first compound 0.316 µM
  viability, T/C: 86.5%
Second compound 31.6 µM, first compound 1 µM
  viability, T/C: 84.2%
Second compound 31.6 µM, first compound 3.16 µM
  viability, T/C: 70.1%
Second compound 31.6 µM, first compound 10 µM
  viability, T/C: 67.5%
Second compound 100 µM, first compound 0.0316 µM
  viability, T/C: 90.7%
Second compound 100 µM, first compound 0.1 µM
  viability, T/C: 95.6%
Second compound 100 µM, first compound 0.316 µM
  viability, T/C: 73.3%
Second compound 100 µM, first compound 1 µM
  viability, T/C: 64.3%
Second compound 100 µM, first compound 3.16 µM
  viability, T/C: 61.2%
Second compound 100 µM, first compound 10 µM
  viability, T/C: 57.1%

## CC[C@@]1(O)C(=O)OCc2c1cc1n(c2=O)Cc2cc3c(CN(C)C)c(O)ccc3nc2-1
Compound 0.003 µM
  viability, T/C: 107% [middle of 10 runs]
Compound 0.03 µM
  viability, T/C: 33.1% [middle of 10 runs]
Compound 0.0949 µM
  viability, T/C: 16.2% [middle of 10 runs]
Compound 0.3 µM
  viability, T/C: 10.4% [middle of 10 runs]
Compound alone, run of 10/17/2019
  IC50: 22.3 nM [middle of 5 runs]
Compound alone, run of 10/25/2019
  IC50: 20.2 nM [middle of 5 runs]

## COc1ccc([C@@H](O)c2cc(-c3ncnc4cc(N5CCOCC5)ccc34)c(F)cc2Cl)nn1 + COc1cc2c(cc1O)CCNC21CSC2c3c(OC(C)=O)c(C)c4c(c3C(COC1=O)N1C(O)C3Cc5cc(C)c(OC)c(O)c5C(C21)N3C)OCO4
Curve of first compound, second compound 30 pM
  IC50: 4.79 µM
Curve of first compound, second compound 94.9 pM
  IC50: 1.68 µM
Curve of first compound, second compound 0.0003 µM
  IC50: < 0.0316 µM
Curve of first compound, second compound 0.000949 µM
  IC50: < 0.0316 µM
Curve of first compound, second compound 0.003 µM
  IC50: < 0.0316 µM
Second compound 30 pM, first compound 0.0316 µM
  viability, T/C: 113%
Second compound 30 pM, first compound 0.1 µM
  viability, T/C: 99.8%
Second compound 30 pM, first compound 0.316 µM
  viability, T/C: 102%
Second compound 30 pM, first compound 1 µM
  viability, T/C: 96.7%
Second compound 30 pM, first compound 3.16 µM
  viability, T/C: 63.7%
Second compound 30 pM, first compound 10 µM
  viability, T/C: 25.1%
Second compound 94.9 pM, first compound 0.0316 µM
  viability, T/C: 108%
Second compound 94.9 pM, first compound 0.1 µM
  viability, T/C: 101%
Second compound 94.9 pM, first compound 0.316 µM
  viability, T/C: 92.9%
Second compound 94.9 pM, first compound 1 µM
  viability, T/C: 65.2%
Second compound 94.9 pM, first compound 3.16 µM
  viability, T/C: 31.3%
Second compound 94.9 pM, first compound 10 µM
  viability, T/C: 13.3%
Second compound 0.0003 µM, first compound 0.0316 µM
  viability, T/C: 39.6%
Second compound 0.0003 µM, first compound 0.1 µM
  viability, T/C: 37.6%
Second compound 0.0003 µM, first compound 0.316 µM
  viability, T/C: 35.7%
Second compound 0.0003 µM, first compound 1 µM
  viability, T/C: 13.4%
Second compound 0.0003 µM, first compound 3.16 µM
  viability, T/C: 5.07%
Second compound 0.0003 µM, first compound 10 µM
  viability, T/C: 2.36%
Second compound 0.000949 µM, first compound 0.0316 µM
  viability, T/C: 3.78%
Second compound 0.000949 µM, first compound 0.1 µM
  viability, T/C: 3.32%
Second compound 0.000949 µM, first compound 0.316 µM
  viability, T/C: 1.74%
Second compound 0.000949 µM, first compound 1 µM
  viability, T/C: 0.47%
Second compound 0.000949 µM, first compound 3.16 µM
  viability, T/C: 0.07%
Second compound 0.000949 µM, first compound 10 µM
  viability, T/C: 0.17%
Second compound 0.003 µM, first compound 0.0316 µM
  viability, T/C: 0.25%
Second compound 0.003 µM, first compound 0.1 µM
  viability, T/C: 0.28%
Second compound 0.003 µM, first compound 0.316 µM
  viability, T/C: 0.28%
Second compound 0.003 µM, first compound 1 µM
  viability, T/C: 0.31%
Second compound 0.003 µM, first compound 3.16 µM
  viability, T/C: 0.29%
Second compound 0.003 µM, first compound 10 µM
  viability, T/C: 0.36%
